# According to patent US10414769B2, “5,8-dimethyl-9-phenyl-5,8-dihydro-6H-pyrazolo[3,4-h]quinazolin-2-yl)-(1H-pyrazol-3-yl)-amines as IGF-1R/IR inhibitors” (Boehringer Ingelheim International GmbH, priority 2015, dated 2019):
# Tests used:
# [1] = target: T1, ACVR1B (ALK4) (Homo sapiens, UniProt P36896); assay: Z'-LYTE kinase selectivity assay ACVR1B; type: biochemical
# T1 construct: purchased Life Technologies PV4312
# T1 sequence (P36896 24-505): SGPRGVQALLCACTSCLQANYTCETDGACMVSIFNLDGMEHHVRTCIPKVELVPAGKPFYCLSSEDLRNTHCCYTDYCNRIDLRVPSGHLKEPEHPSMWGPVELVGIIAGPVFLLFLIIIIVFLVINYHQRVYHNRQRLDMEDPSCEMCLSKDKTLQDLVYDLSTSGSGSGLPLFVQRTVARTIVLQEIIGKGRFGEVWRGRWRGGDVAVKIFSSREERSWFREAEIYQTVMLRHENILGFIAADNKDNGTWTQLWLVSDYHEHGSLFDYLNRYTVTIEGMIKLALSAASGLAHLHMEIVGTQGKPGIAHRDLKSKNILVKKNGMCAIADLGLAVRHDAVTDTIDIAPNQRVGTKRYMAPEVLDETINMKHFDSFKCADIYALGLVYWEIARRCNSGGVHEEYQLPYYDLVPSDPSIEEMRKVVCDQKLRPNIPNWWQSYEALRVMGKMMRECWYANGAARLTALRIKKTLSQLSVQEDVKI
# Text: (§1) In order to compare the kinase selectivity of compounds (I) according to the invention with known prior art compounds the commercially provided SelectScreen® Kinase Profiling Service (Z′-LYTE®) was used (Life Technologies GmbH, Darmstadt, Germany) to investigate the ability of the compounds to inhibit a number of different, representatively selected human kinases. Further details regarding this service are available on the Life Technologies website at
# (§2) The Z′-LYTE® biochemical assay employs a fluorescence-based, coupled-enzyme format and is based on the differential sensitivity of phosphorylated and non-phosphorylated peptides to proteolytic cleavage. The peptide substrate is labeled with two fluorophores—one at each end—that make up a FRET pair.
# (§3) In the primary reaction, the kinase transfers the gamma-phosphate of ATP to a single tyrosine, serine or threonine residue in a synthetic FRET-peptide. In the secondary reaction, a site-specific protease recognizes and cleaves non-phosphorylated FRET-peptides. Phosphorylation of FRET-peptides suppresses cleavage by the Development Reagent. Cleavage disrupts FRET between the donor (i.e., coumarin) and acceptor (i.e., fluorescein) fluorophores on the FRET-peptide, whereas uncleaved, phosphorylated FRET-peptides maintain FRET. A ratiometric method, which calculates the ratio (the Emission Ratio) of donor emission to acceptor emission after excitation of the donor fluorophore at 400 nm, is used to quantitate reaction progress, as shown in the equation below.
# (§4) The Test Compounds are screened at 1 μM.
# The 2×ACVR1B (ALK4) (# PV4312)/Ser/Thr 16 (Z′-LYTE® Kinase Assay Kit—Ser/Thr 16 Peptide, # PV 3802) mixture is prepared in 50 mM HEPES pH 7.5, 0.01% BRIJ-35, 10 mM MnCl2, 1 mM EGTA, 2 mM DTT, 0.02% NaN3. The final 10 μL Kinase Reaction consists of 9.15-60 ng ACVR1B (ALK4) and 2 μM Ser/Thr 16 in 50 mM HEPES pH 7.5, 0.01% BRIJ-35, 5 mM MgCl2, 5 mM MnCl2, 1 mM EGTA, 1 mM DTT, 0.01% NaN3. After the 1 hour Kinase Reaction incubation, 5 μL of a 1:16 dilution of Development Reagent B is added.
# [2] = target: T2, EPHB2 (Homo sapiens, UniProt P29323); assay: Z'-LYTE kinase selectivity assay EPHB2; type: biochemical
# T2 construct: purchased Life Technologies PV 3625
# T2 sequence (P29323 19-1055): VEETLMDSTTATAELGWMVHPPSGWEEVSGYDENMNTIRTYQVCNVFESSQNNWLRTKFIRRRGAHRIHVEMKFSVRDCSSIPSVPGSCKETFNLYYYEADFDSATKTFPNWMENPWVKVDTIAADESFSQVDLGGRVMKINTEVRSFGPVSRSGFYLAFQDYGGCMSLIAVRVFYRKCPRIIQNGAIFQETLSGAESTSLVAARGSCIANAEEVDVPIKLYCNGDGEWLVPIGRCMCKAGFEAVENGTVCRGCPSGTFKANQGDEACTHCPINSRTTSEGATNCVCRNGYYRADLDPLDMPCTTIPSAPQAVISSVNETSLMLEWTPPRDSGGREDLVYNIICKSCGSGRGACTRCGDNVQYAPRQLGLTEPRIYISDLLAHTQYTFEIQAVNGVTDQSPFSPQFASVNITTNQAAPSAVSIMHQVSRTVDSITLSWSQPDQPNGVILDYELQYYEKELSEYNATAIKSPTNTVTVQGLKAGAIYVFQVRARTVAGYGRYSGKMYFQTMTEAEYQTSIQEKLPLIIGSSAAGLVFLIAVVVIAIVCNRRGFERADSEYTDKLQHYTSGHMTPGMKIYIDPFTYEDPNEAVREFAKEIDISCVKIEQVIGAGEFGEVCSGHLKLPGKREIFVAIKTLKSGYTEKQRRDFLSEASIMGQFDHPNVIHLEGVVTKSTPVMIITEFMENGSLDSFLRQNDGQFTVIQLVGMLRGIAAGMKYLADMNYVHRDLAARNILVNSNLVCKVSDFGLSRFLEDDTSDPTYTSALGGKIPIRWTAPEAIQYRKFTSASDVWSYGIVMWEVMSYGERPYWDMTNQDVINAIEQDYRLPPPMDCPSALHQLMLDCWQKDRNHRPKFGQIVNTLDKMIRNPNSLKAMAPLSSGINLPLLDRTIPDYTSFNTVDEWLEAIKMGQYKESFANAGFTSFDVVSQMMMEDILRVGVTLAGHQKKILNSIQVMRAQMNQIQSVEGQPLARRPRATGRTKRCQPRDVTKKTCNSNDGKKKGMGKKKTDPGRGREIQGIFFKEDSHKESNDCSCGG
# Text: as §1, §2, §3, §4
# The 2×EPHB2 (# PV 3625)/Tyr 02 (Z′-LYTE® Kinase Assay Kit—Tyrosine 2 Peptide, # PV 3191) mixture is prepared in 50 mM HEPES pH 7.5, 0.01% BRIJ-35, 10 mM MgCl2, 1 mM EGTA. The final 10 μL Kinase Reaction consists of 0.55-36 ng EPHB2 and 2 μM Tyr 02 in 50 mM HEPES pH 7.5, 0.01% BRIJ-35, 10 mM MgCl2, 1 mM EGTA. After the 1 hour Kinase Reaction incubation, 5 μL of a 1:128 dilution of Development Reagent A is added.
SMILES,inhibition at 1 µM [1] [%],inhibition at 1 µM [2] [%]
C[C@@H]1Cc2nn(C)c(-c3ccccc3)c2-c2nc(Nc3ccn(CCN4CCN(C)CC4)n3)ncc21 [Compound I-1],-10,64
C[C@@H]1Cc2nn(C)c(-c3ccccc3)c2-c2nc(Nc3ccn(CCN4CCOCC4)n3)ncc21 [Compound I-2],0,68
C[C@@H]1Cc2nn(C)c(-c3ccccc3)c2-c2nc(Nc3ccn(CCN4CCN(CC(C)(C)O)CC4)n3)ncc21 [Compound I-3],0,77
CC(O)CN1CCN(CCn2ccc(Nc3ncc4c(n3)-c3c(nn(C)c3-c3ccccc3)C[C@H]4C)n2)CC1 (some centres unmarked) [Compound I-7],0,82
C[C@@H]1Cc2nn(C)c(-c3ccccc3)c2-c2nc(Nc3ccn(CCN4CCN(CC(=O)OC5CCOCC5)CC4)n3)ncc21 [Compound I-8],-4,62
C[C@@H]1Cc2nn(C)c(-c3ccccc3)c2-c2nc(Nc3ccn(CCN4CCN(CC5CCCO5)CC4)n3)ncc21 (some centres unmarked) [Compound I-9],7,73
COCCN1CCN(CCn2ccc(Nc3ncc4c(n3)-c3c(nn(C)c3-c3ccccc3)C[C@H]4C)n2)CC1 [Compound I-11],-11,56
